“And” between values parts separate entries of the source, which are not always exact repeats. Equal entries are not always repeated.
Key:
non-constipation IBS [1] = experiment: Study 1 (TARGET 1): rifaximin 550 mg TID 14 days vs placebo in non-C IBS, 10-week follow-up; type: in vivo, human
From the text: A measure of efficacy is based on subjects' answers to the Weekly Subject Global Assessment (SGA) questions over the study duration in relation to their IBS symptoms.
Additionally subjects having a stool consistency score of <4 and at least a 1 point reduction in average daily IBS score were identified. […]
In TARGET 1 and 2, the primary endpoint was the proportion of patients who achieved adequate relief of IBS symptoms for at least 2 of 4 weeks during the month following 14 days of treatment. Adequate relief was defined as a response of “yes” to the following weekly Subject Global Assessment (SGA) question: “In regards to your IBS symptoms, compared to the way you felt before you started study medication, have you, in the past 7 days, had adequate relief of your IBS symptoms? [Yes/No]”
The key secondary endpoint was the proportion of patients who achieved adequate relief of IBS-related bloating for at least 2 of 4 weeks during the month following 2 weeks of treatment. Adequate relief of IBS-related bloating was defined as a response of “yes” to the following weekly (every 7 days) SGA question: “In regards to your IBS symptom of bloating, compared to the way you felt before you started study medication, have you, in the past 7 days, had adequate relief of your IBS symptom of bloating?
The trials examined a composite endpoint which defined responders by IBS-related abdominal pain and stool consistency measures. Patients were responders if they experienced a ≥30% decrease from baseline in abdominal pain for ≥2 weeks during the month following 2 weeks of treatment. […] Patients were monthly responders if they met criteria for BOTH abdominal pain and stool consistency ≥2 weeks per month. […] (See Table 60.)

non-constipation IBS [2] = experiment: Study 2 (TARGET 2): rifaximin 550 mg TID 14 days vs placebo in non-C IBS, 10-week follow-up; type: in vivo, human; settings: at least 2 weeks during PEP
rabbit fetuses = experiment: Developmental toxicity in pregnant rabbits; type: in vivo
P-glycoprotein = molecular target: T1, P-glycoprotein (Homo sapiens, UniProt P08183); experiment: Bidirectional permeability and efflux ratio of rifaximin in Caco-2 cells with P-glycoprotein inhibitors; type: in vitro ADME; settings: for Decrease of rifaximin ER in presence of GF120918 (0.5 μM) and verapamil (60 μM): rifaximin 5 μM
T1 construct: Caco-2 cells, a human epithelial colorectal adenocarcinoma cell line; endogenous in cells; host or cells: Caco-2
From the text: The ER is the ratio of efflux permeability (basolateral to apical, B-A) to absorptive permeability (apical to basolateral, A-B), and values >1 are indicative of greater efflux than absorption.

[3] = Study 1, at least 2 weeks during PEP
[4] = TARGET 1, month following two weeks of treatment, 550 mg TID, N = 309

T1 sequence (P08183 whole entry): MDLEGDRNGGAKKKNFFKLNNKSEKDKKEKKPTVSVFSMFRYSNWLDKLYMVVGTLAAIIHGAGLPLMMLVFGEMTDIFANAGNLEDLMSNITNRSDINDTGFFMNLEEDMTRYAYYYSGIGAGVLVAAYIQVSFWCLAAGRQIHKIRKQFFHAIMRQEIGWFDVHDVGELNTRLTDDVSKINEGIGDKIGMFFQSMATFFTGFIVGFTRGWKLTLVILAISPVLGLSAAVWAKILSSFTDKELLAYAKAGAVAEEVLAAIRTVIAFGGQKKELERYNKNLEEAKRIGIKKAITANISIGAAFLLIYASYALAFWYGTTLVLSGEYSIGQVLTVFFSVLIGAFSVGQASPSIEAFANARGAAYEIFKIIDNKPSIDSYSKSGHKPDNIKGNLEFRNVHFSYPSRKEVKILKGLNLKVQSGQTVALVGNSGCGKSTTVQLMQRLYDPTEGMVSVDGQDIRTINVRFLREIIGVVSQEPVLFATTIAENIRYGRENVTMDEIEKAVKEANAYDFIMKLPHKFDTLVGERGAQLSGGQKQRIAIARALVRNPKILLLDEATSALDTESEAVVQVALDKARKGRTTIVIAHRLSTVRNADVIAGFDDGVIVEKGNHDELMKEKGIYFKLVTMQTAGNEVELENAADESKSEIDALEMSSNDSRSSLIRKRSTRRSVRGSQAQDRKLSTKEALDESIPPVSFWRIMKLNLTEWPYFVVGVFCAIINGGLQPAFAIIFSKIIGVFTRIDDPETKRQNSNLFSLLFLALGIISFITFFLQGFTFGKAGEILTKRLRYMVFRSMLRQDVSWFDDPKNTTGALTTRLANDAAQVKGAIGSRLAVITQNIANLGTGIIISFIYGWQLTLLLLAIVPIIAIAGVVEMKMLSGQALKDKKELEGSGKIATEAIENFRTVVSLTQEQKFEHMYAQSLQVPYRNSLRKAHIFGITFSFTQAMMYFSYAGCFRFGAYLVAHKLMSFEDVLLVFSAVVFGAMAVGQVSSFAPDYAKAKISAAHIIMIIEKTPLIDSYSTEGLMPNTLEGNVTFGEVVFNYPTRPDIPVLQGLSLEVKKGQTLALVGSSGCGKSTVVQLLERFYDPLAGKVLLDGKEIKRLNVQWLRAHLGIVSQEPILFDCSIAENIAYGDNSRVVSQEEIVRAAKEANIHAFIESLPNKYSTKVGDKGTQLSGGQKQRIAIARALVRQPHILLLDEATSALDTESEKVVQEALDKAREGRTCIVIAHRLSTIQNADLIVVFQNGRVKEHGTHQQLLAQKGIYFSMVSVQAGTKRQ

CO[C@H]1/C=C/O[C@@]2(C)Oc3c(C)c(O)c4c(O)c(c5c(nc6cc(C)ccn65)c4c3C2=O)NC(=O)/C(C)=C\C=C\[C@H](C)[C@H](O)[C@@H](C)[C@@H](O)[C@@H](C)[C@H](OC(C)=O)[C@@H]1C [Rifaximin, (2S,16Z,18E,20S,21S,22R,23R,24R,25S,26S,27S,28E)-5,6,21,23,25 Pentahydroxy-27-methoxy-2,4,11,16,20,22,24,26-octamethyl-2,7-(epoxypentadeca-(1,11,13)trienimino) benzofuro (4,5-e) pyrido(1,2-a) benzimidazole-1,15(2H)-dione,25-acetate]
IBS symptom of bloating: adequate relief at least 2 out of 4 weeks during weeks 3 through 6 (weekly question) (non-constipation IBS [1]; Study 1 / TARGET 1): 40% | Global IBS symptoms: adequate relief at least 2 out of 4 weeks during weeks 3 through 6 (weekly question) (non-constipation IBS [1]; Study 1 / TARGET 1, 550 mg TID 14 d): 41% and 31% vs 41% | Responders: abdominal pain reduction of 1 point in weekly mean (non-constipation IBS [1]; [3]): 52% | Responders: abdominal pain reduction of 1 point in weekly median (non-constipation IBS [1]; [3]): 63% | Responders: abdominal pain reduction of 2 point in mean (non-constipation IBS [1]; [3]): 26% | Responders: abdominal pain reduction of 2 point in median (non-constipation IBS [1]; [3]): 37% | Responders: abdominal pain reduction of 3 point in mean (non-constipation IBS [1]; [3]): 6% vs 7% | Responders: abdominal pain reduction of 3 point in median (non-constipation IBS [1]; [3]): 22% | Responders: daily abdominal pain < 2 for at least 50% of days in a week (non-constipation IBS [1]; [3]): 40% | Responders: overall reduction of mean weekly abdominal pain by >= 25% (non-constipation IBS [1]; [3]): 56% | Responders: overall reduction of mean weekly abdominal pain by >= 50% (non-constipation IBS [1]; [3]): 36% | Responders: overall reduction of mean weekly abdominal pain by >= 75% (non-constipation IBS [1]; [3]): 14% | Responders: overall reduction of median weekly abdominal pain by >= 25% (non-constipation IBS [1]; [3]): 63% | Responders: overall reduction of median weekly abdominal pain by >= 50% (non-constipation IBS [1]; [3]): 44% | Responders: overall reduction of median weekly abdominal pain by >= 75% (non-constipation IBS [1]; [3]): 23% | Abdominal Pain Responders: % (non-constipation IBS [1]; [4]): 51% | Abdominal Pain Responders: n (non-constipation IBS [1]; [4]): 159 | Abdominal Pain and Stool Consistency Responders: % (non-constipation IBS [1]; [4]): 47% | Abdominal Pain and Stool Consistency Responders: n (non-constipation IBS [1]; [4]): 144 | Adequate Relief of IBS Symptoms: % (non-constipation IBS [1]; [4]): 41% | Adequate Relief of IBS Symptoms: n (non-constipation IBS [1]; [4]): 126 | Adequate Relief of IBS-Related Bloating: % (non-constipation IBS [1]; [4]): 40% | Adequate Relief of IBS-Related Bloating: n (non-constipation IBS [1]; [4]): 122 | Stool Consistency Responders: % (non-constipation IBS [1]; [4]): 79% | Stool Consistency Responders: n (non-constipation IBS [1]; [4]): 244 | Monthly responders for abdominal pain (≥30% decrease) and stool consistency (score <4) (non-constipation IBS [1]; TARGET 1, ≥2 weeks in month following 2 weeks of treatment): 47% | Responders: abdominal pain reduction of 1 point in weekly median (non-constipation IBS [2]): 62% | Responders: abdominal pain reduction of 2 point in mean (non-constipation IBS [2]): 25% | Responders: overall reduction of median weekly abdominal pain by >= 75% (non-constipation IBS [2]): 20% | Additional fetal malformations (rabbit fetuses; fetal rabbits): cleft palate, lumbar scoliosis, brachygnathia, interventricular septal defect, and large atrium | Fetal malformations (rabbit fetuses; pregnant rabbits, dose levels that caused reduced body weight gain): eye malformations | Maximum inhibition of rifaximin efflux permeability due to P-glycoprotein inhibition by verapamil (P-glycoprotein; Caco-2 cells): 12 fold | P-glycoprotein substrate status (P-glycoprotein; Caco-2 cells and membrane vesicles): substrate for P-glycoprotein | Papp A→B (P-glycoprotein; human, Caco-2 monolayers, 0.5, 5, and 50 μM, read-out: Net permeability in the absorptive direction): ~1 ×10⁻⁶ cm/s | Decrease of rifaximin ER in presence of GF120918 (0.5 μM) and verapamil (60 μM) (P-glycoprotein; Round 1): 8- to 12 fold | Decrease of rifaximin ER in presence of GF120918 (0.5 μM) and verapamil (60 μM) (P-glycoprotein; Round 2): 3- to 6 fold
